# Read-outs that look alike come from different tables or passages of the source.
# Experiments:
# [1] = tested on: Plasmodium falciparum 3D7 strain (chloroquine-sensitive); assay: Antimalarial activity in vitro, [3H]-hypoxanthine isotopic microtest; type: cell-based; settings: asynchronous culture of infected erythrocytes, 48 hours + 18 hours [3H]-hypoxanthine, read-out: Plasmodium Proliferation test 3D7 strain (IC 50)
# Method: Before experimentation, parasites of the 3D7 strain (chloroquine-sensitive, […] de Waal H. A. and F. […] ATCC no.: MRA-102) of Plasmodium falciparum are maintained in culture according to the Trager and Jansen method (Trager and Jansen, 1976). The antimalarial activity is measured in vitro on an asynchronous culture of erythrocytes infected with Plasmodium falciparum according to a modified method ([…] et al., 2003) based on the Desjardins isotopic microtest (Desjardins et al., 1979). […] After incubation for 48 hours, 0.5 μCi [^3H]-hypoxanthine (a precursor necessary for the synthesis of the radiolabelled nucleic acids of the parasite) are added to each microtitre plate well. After incubation for 18 hours, the hypoxanthine incorporation reaction is stopped and the cells lysed by direct freezing at -80° C. After thawing, the parasitic macromolecules, including the radiolabelled nucleic acids, are collected on a filter by means of a cell collector. A scintillation cocktail is added to the filter and the incorporated radioactivity is then measured with a scintillation counter. The radioactive background noise is measured starting from non-infected erythrocytes and subtracted from each filter measurement. The viability of the parasites treated with the compound to be tested is measured by their ability to synthesize nucleic acids from a radiolabelled precursor ([H^3]-hypoxanthine) in comparison with the control parasites cultured in the absence of the compound and is expressed as a percentage of the control. The measurements are analyzed by means of the Graphpad Prism software and the IC50 (concentration of compound able to inhibit 50% of the parasites' growth in vitro) is determined graphically. The results obtained appear in the form of IC50 in the table and are the result of two experiments carried out independently (different parasite cultures, different dilutions) in duplicate.
# [2] = tested on: Toxoplasma (RH-β1 strain) in HFF (Human Foreskin Fibroblast) cells; assay: Antitoxoplasmic activity in vitro, colorimetric microtitre proliferation test; type: cell-based, Toxoplasma gondii
# Method: The test implemented here is a colorimetric microtitre test. A monolayer of HFF (Human Foreskin Fibroblast) cells is infected, in a synchronous manner, by the parasite (10^4 parasites per well, RH-β1 strain). After washing, increasing doses (from 50 nM to 100 μM) of compound are added, except to the control well (addition, or no addition, of DMSO). After incubation for 48 hours, the β-galactosidase activity is measured by the addition of a substrate of the enzyme, chlorophenol red β-D-galactopyranoside (CPRG). The plates are again incubated (from 30 min to 16 h at 37° C.) before being read at 570 and 630 nm.
# [3] = tested on: synchronized Plasmodium falciparum parasites (ring, trophozoite, schizont); assay: Minimum contact time necessary for cytotoxicity as a function of the parasitic stage (time-course); type: cell-based; settings: 20×IC50, contact 30 min to 9 h; for activity on the different blood stages of the parasite (FIG. 11): viability as % of control; for speed and reversibility of the action (FIG. 11): washed, viability read at next cycle
# Method: A culture of Plasmodium falciparum parasites is synchronized with VarioMACS (which retains the mature forms, which synthesize a pigment: haemozoin). After the culture has been passed through a VarioMACS column for 6 h, the synchronization range of the parasites is restricted by a second synchronization with 5% sorbitol (which retains only the young, so-called ring stage) at time t0, i.e. a short time after the invasion of healthy erythrocytes by the merozoites originating from the schizonts obtained by synchronization with the VarioMACS. The parasites are then brought into contact during each stage (ring, then trophozoite then schizont) with a fixed concentration of compound (20×IC50 previously defined by the above protocol) and for variable periods of time (30 min, 1 h 30 min, 3 h, 5 h, 7 h and 9 h in the case of parasites treated in the ring stage; 30 min, 1 h 30 min, 3 h, 5 h and 7 h in the case of parasites treated in the trophozoite and schizont stage). At the end of the defined period of contact, the erythrocyte mat is washed twice in complete medium. At t0+44h, (i.e. at the start of the subsequent parasitic life cycle), the erythrocyte mats are resuspended and redistributed into 96-well plates (in sextuplicate), 0.5 μCi of tritiated [^3H]-hypoxanthine is then added to the culture medium. From then on, the treatment is the same as that of the abovementioned experiment with one difference: the results obtained appear in the form of a graph which represents the viability of the parasites expressed as a control percentage as a function of the time for which the culture is in contact with the compound to be tested.
# [4] = Plasmodium falciparum, 3D7, Erythrocyte, 66 h
# [5] = Toxoplasma, Fibroblast, 48 h, read-out: Toxoplasma Proliferation test (IC 50), HFF monolayer infected with RH-β1 strain, 48 hours incubation, β-galactosidase activity (CPRG)
# [6] = HFF monolayer infected with RH-β1 strain, 48 hours incubation, β-galactosidase activity (CPRG), read-out: Toxoplasma Proliferation test (IC 50)
molecule,measurement,setting,value
"O=C1C=C[C@]2(C=C1)CCC1(CC(O)C[C@]3(CC[C@@]4(C=CC(=O)C=C4)O3)O1)O2 (stereo partly drawn) [4b, (8R,10R,21S)-21-Hydroxy-7,9,11-trioxatetraspiro[5.1.1.1.5^12.2^10.3^8.2^6]tetracosa-1,4,13,16-dien-3,15-one]",IC50,[1]; [4],584 nM
same,IC50,[2]; [5],1500 nM
"CCCCCCCCCCCCC[C@@H]1C[C@H](O)C[C@]2(CCC3(C=CC(=O)C=C3)O2)O1 [Natural aculeatin B, aculeatin B, reference compound]",IC50,[1],454 nM
same,IC50,[2]; [6],365 nM
"CCCCCCCCCCCCCCCCCCOC(=O)C[C@@H]1C[C@H](O)C[C@]2(CCC3(C=CC(=O)C=C3)O2)O1 (racemic) [12c, octadecyl (2S,4S,6R)- and (2R,4R,6S)-(4-Hydroxy-11-oxo-1,7-dioxadispiro[5.1.5.2]pentadeca-9,12-dien-2-yl)-acetate]",IC50,[1]; [4],1030 nM
same,IC50,[2]; [5],3540 nM
"CCCCCCN(CCCCCC)C(=O)C[C@@H]1C[C@@H](O)C[C@]2(CCC3(C=CC(=O)C=C3)O2)O1 (racemic) [10e, (2S,4R,6R)- and (2R,4S,6S)—N,N-dihexyl-2-(4-hydroxy-11-oxo-1,7-dioxadispiro[5.1.5.2]pentadeca-9,12-dien-2-yl)-acetamide]",IC50,[1]; [4],899 nM
"CCCOC(=O)C[C@@H]1C[C@@H](O)C[C@]2(CCC3(C=CC(=O)C=C3)O2)O1 (mixture of isomers) [10a, propyl (2S,4R,6R)- and (2R,4S,6S)-(4-Hydroxy-1′-oxo-1,7-dioxadispiro[5.1.5.2]pentadeca-9,12-dien-2-yl)-acetate]",IC50,[1],1840 nM
same,IC50,[2]; [6],500 nM
6-epi-aculeatin D [reference compound],IC50,[1],451 nM
same,IC50,[2]; [6],377 nM
"CCCCCCC(=O)OC1CC2(CC[C@]3(C=CC(=O)C=C3)O2)O[C@@]2(CC[C@]3(C=CC(=O)C=C3)O2)C1 (mixture of isomers) [16a, (8R,10S,21S)- and (8S,10R,21R)-Heptanoate of 7,9,11-trioxatetraspiro[5.1.1.1.5^12.2^10.3^8.2^6]tetracosa-1,4,13,16-dien-3,15-on-21-yl]",IC50,[1]; [4],343 nM
"CCCCCCCCCCOC(=O)C[C@@H]1C[C@@H](O)C[C@]2(CCC3(C=CC(=O)C=C3)O2)O1 (racemic) [10b, decyl (2S,4R,6R)- and (2R,4S,6S)-(4-Hydroxy-11-oxo-1,7-dioxadispiro[5.1.5.2]pentadeca-9,12-dien-2-yl)-acetate]",IC50,[1]; [4],654 nM
same,IC50,[2]; [5],341 nM
"CCCCCCCCCCCCC[C@@H]1C[C@@H](O)C[C@]2(CCC3(C=CC(=O)C=C3)O2)O1 [Natural aculeatin A, aculeatin A, reference compound]",IC50,[1],288 nM
same,IC50,[2]; [6],309 nM
"O=C1C=CC2(C=C1)CC[C@]1(CC(O)C[C@@]3(CCC4(C=CC(=O)C=C4)O3)O1)O2 (stereo partly drawn) [4a, (8R,10S,21S)- and (8S,10R,21R)-21-Hydroxy-7,9,11-trioxatetraspiro[5.1.1.1.5^12.2^10.3^8.2^6]tetracosa-1,4,13,16-dien-3,15-one]",IC50,[1],414 nM
same,IC50,[2]; [6],173 nM
"CCCCCCCCCCOC(=O)CC1CC(O)C[C@@]2(CCC3(C=CC(=O)C=C3)O2)O1 (mixture of isomers) [11b, (2S,4R,6S)- and decyl (2R,4S,6R)-(4-Hydroxy-11-oxo-1,7-dioxadispiro[5.1.5.2]pentadeca-9,12-dien-2-yl)-acetate]",IC50,[1]; [4],1360 nM
same,IC50,[2]; [5],1640 nM
"CCCCCCCCCCCCCC(=O)CC(=O)OC1C[C@]2(CCC3(C=CC(=O)C=C3)O2)O[C@]2(CCC3(C=CC(=O)C=C3)O2)C1 (stereo partly drawn) [16e, (8R,10S,21S)- and (8S,10R,21R)-3-Oxohexadecanoate of 7,9,11-trioxatetraspiro[5.1.1.1.5^12.2^10.3^8.2^6]tetracosa-1,4,13,16-dien-3,15-on-21-yl]",IC50,[1],122 nM
"CCCCCCCCCCCCCCCCCCOC(=O)C[C@@H]1C[C@H](O)C[C@@]2(CCC3(C=CC(=O)C=C3)O2)O1 (racemic) [13c, octadecyl (2S,4S,6S)- and (2R,4R,6R)-(4-Hydroxy-11-oxo-1,7-dioxadispiro[5.1.5.2]pentadeca-9,12-dien-2-yl)-acetate]",IC50,[1]; [4],1130 nM
same,IC50,[2]; [5],3520 nM
"CCCCCCCCCCCCCC(=O)OC1CC2(CC[C@]3(C=CC(=O)C=C3)O2)O[C@@]2(CC[C@]3(C=CC(=O)C=C3)O2)C1 (mixture of isomers) [16c, (8R,10S,21S)- and (8S,10R,21R)-Tetradecanoate of 7,9,11-trioxatetraspiro[5.1.1.1.5^12.2^10.3^8.2^6]tetracosa-1,4,13,16-dien-3,15-on-21-yl]",IC50,[1]; [4],81.5 nM
same,activity on the different blood stages of the parasite (FIG. 11),[3],"active on the different blood stages (rings, trophozoites and schizonts)"
same,speed and reversibility of the action (FIG. 11),[3],extremely rapid and is not reversible
same,IC50,[2]; [5],346 nM
"CCCCCCCCCCCCCC(=O)OC1CC2(CC[C@]3(C=CC(=O)C=C3)O2)O[C@@]2(CC[C@]3(C=CC(=O)C=C3)O2)C1 (stereo partly drawn) [16d, (8R,10R,21S)-Tetradecanoate of 7,9,11-trioxatetraspiro[5.1.1.1.5^12.2^10.3^8.2^6]tetracosa-1,4,13,16-dien-3,15-on-21-yl]",IC50,[1],91.7 nM
same,activity on the different blood stages of the parasite (FIG. 11),[3],"active on the different blood stages (rings, trophozoites and schizonts)"
same,speed and reversibility of the action (FIG. 11),[3],extremely rapid and is not reversible
same,IC50,"[2]; read-out: Toxoplasma Proliferation test (IC 50), HFF monolayer infected with RH-β1 strain, 48 hours incubation, β-galactosidase activity (CPRG)",636 nM
"CCCCCCCCCCCCCCCCCCOC(=O)C[C@@H]1C[C@@H](O)C[C@]2(CCC3(C=CC(=O)C=C3)O2)O1 (racemic) [10c, octadecyl (2S,4R,6R)- and (2R,4S,6S)-(4-Hydroxy-11-oxo-1,7-dioxadispiro[5.1.5.2]pentadeca-9,12-dien-2-yl)-acetate]",IC50,[1]; [4],770 nM
same,IC50,[2]; [5],2400 nM
"CCCCCCC(=O)OC1CC2(CC[C@]3(C=CC(=O)C=C3)O2)O[C@@]2(CC[C@]3(C=CC(=O)C=C3)O2)C1 (stereo partly drawn) [16b, (8R,10R,21S)-Heptanoate of 7,9,11-trioxatetraspiro[5.1.1.1.5^12.2^10.3^8.2^6]tetracosa-1,4,13,16-dien-3,15-on-21-yl]",IC50,[1],331 nM
